Source: patent US20040023276A1, “LXR-ligand induced genes and proteins” (priority 2002, published 2004)

Test system: LXRLI1 gene
Test: Microarray gene expression profiles of cells treated with LXR-ligand
Format: cell-based, human
Settings: THP-1 cells, primary macrophages, primary hepatocytes; APD 0.001-0.1 μM, 6-24 hours; treated vs. untreated
Text: To identify human transcripts up or down regulated by LXR-ligand, FlexJet™ microarrays representing either 25,000 Unigene clusters were hybridized to a mixture of cRNAs prepared from samples obtained from untreated versus treated cells of various types. Microarrays, and materials and methods for preparing hybridization samples from purified RNA, hybridizing the microarrays, detecting hybridization signals, and data analysis are described in van't Veer,iet al. (2002 Nature 415:530-536) and Hughes, et al. (2001 Nature Biotechnol. 19:342-7).
Experiments were conducted comparing gene expression profiles of primary hepatocytes, primary human macrophage and THP-1 cells treated with a variety of compounds known to activate the LXR and PPAR nuclear receptor regulated pathways. Additional compound treatments were performed which are known to cause an increase, or decrease in cellular cholesterol. All cells were cultured at 37° C. in a humidified atmosphere consisting of 95% air and 5% carbon dioxide. For each cell sample, mRNA was extracted and purified using Trizol reagent (Invitrogen Corporation, Carlsbad, Calif.) followed by DNAse treatment, as described by Fu, et al. (2001 J. Biol. Chem. 276:38378-87). For the primary hepatocytes, the Trizol purification was followed by a RNasy DNAase (Promega Corp, Madison, Wis.) step per the manufacturer's instructions. […]

In the case of `CC(=O)Oc1ccc2c(c1)[C@@]1(C)CCC[C@](C)(C(=O)OC(=O)[C@@]3(C)CCC[C@]4(C)c5cc(OC(C)=O)ccc5CC[C@@H]34)[C@@H]1CC2` [APD, acetylpodocarpic dimer], the “Transcription of the LXRLI1 gene” value was “induced”.
